Calls of active or inactive are those of the source. The calls are words filed in the database; no cut-off is given here.
Key:
Rhodesain [1] = biological target: T1, Rhodesain (Trypanosoma brucei rhodesiense, UniProt Q95PM0); assay: Inhibition of Trypanosoma brucei rhodesiense recombinant rhodesain using low concentration of enzyme by standard fluorescence assay
Plasmodium falciparum [2] = assay: Antiplasmodial activity against Plasmodium falciparum W2 by flow cytometry; format: functional, organism-based
Rhodesain [3] = biological target: T1, Rhodesain; assay: Inhibition of Trypanosoma brucei rhodesiense recombinant rhodesain using high concentration of enzyme by standard fluorescence assay in presence of detergent
Rhodesain [4] = biological target: T1, Rhodesain; assay: Inhibition of Trypanosoma brucei rhodesiense recombinant rhodesain using high concentration of enzyme by standard fluorescence assay
[5] = Inhibition of Plasmodium falciparum recombinant falcipain-2 using Cbz-Leu-Arg-AMC as substrate by standard fluorescence assay
Rhodesain [6] = biological target: T1, Rhodesain; assay: Inhibition of Trypanosoma brucei rhodesiense recombinant rhodesain using low concentration of enzyme by standard fluorescence assay in presence of detergent
[7] = tested on: Trypanosoma brucei brucei; assay: Antitrypanosomal activity against Trypanosoma brucei brucei; format: functional, organism-based
[8] = Inhibition of Plasmodium falciparum recombinant falcipain-3 by standard fluorescence assay
Rhodesain [9] = biological target: T1, Rhodesain; assay: (§1) Inhibition of Trypanosoma brucei rhodesiense recombinant rhodesain by standard fluorescence assay
[10] = biological target: Rhodesain (Trypanosoma brucei rhodesiense) (UniProt Q95PM0); assay: as §1; conditions: TDE = time-dependent effect
Chain of Rhodesain (Trypanosoma brucei rhodesiense) (Q95PM0 1-450): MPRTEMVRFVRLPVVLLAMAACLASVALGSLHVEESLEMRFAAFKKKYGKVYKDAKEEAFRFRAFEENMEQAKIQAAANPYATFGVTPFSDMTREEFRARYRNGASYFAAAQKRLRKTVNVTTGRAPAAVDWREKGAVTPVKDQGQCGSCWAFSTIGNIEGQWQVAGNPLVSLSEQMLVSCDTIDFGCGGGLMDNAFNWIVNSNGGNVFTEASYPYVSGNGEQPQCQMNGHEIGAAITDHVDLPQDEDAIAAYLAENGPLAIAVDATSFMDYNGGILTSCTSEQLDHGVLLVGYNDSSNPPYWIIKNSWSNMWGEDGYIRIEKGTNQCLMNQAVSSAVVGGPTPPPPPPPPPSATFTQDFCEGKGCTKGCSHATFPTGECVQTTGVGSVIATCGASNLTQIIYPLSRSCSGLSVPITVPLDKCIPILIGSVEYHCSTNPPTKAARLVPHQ

Rhodesain [11] = biological target: T1, Rhodesain; assay: Inhibition of Trypanosoma brucei rhodesiense recombinant rhodesain by standard fluorescence assay in presence of DTT
[12] = Selectivity index, ratio of IC50 for mouse J774.1 cells to IC50 for Trypanosoma brucei brucei; format: toxicity; conditions: J774.1 cells versus Trypanosoma brucei brucei, read-out: Ratio IC50
[13] = Cytotoxicity against mouse J774.1 cells; format: cell-based
[14] = biological target: Rhodesain (Trypanosoma brucei rhodesiense) (UniProt Q95PM0); assay: Inhibition of Trypanosoma brucei rhodesiense recombinant rhodesain at 100 uM by standard fluorescence assay
Plasmodium falciparum [15] = assay: Antiplasmodial activity against Plasmodium falciparum W2 at 10 uM by flow cytometry; format: functional
Plasmodium falciparum [16] = assay: Inhibition of Plasmodium falciparum recombinant falcipain-2 at 100 uM by standard fluorescence assay
Plasmodium falciparum [17] = assay: Antiplasmodial activity against Plasmodium falciparum FCBR by flow cytometry; format: functional, organism-based; conditions: FCBR/Columbia
[18] = Inhibition of Plasmodium falciparum recombinant falcipain-2 using Cbz-Phe-Arg-AMC as substrate by standard fluorescence assay

T1 sequence (Q95PM0 whole entry): as the sequence (Q95PM0 1-450) above

| SMILES | Ki (Rhodesain [1]) | IC50 (Plasmodium falciparum [2]) | Ki (Rhodesain [3]) | Ki (Rhodesain [4]) | Ki [5] | Ki (Rhodesain [6]) | IC50 [7] | Ki [8] | Ki (Rhodesain [9]) | Time-dependent inhibition (qualitative) [10] | Ki (Rhodesain [11]) | selectivity ratio [12] | IC50 [13] | inhibition [14] | inhibition at 10 µM (Plasmodium falciparum [15]) | inhibition (Plasmodium falciparum [16]) | IC50 (Plasmodium falciparum [17]) | Ki [18] |
| --- | --- | --- | --- | --- | --- | --- | --- | --- | --- | --- | --- | --- | --- | --- | --- | --- | --- | --- |
| CCOC(=O)/C=C/[C@H](CCC(=O)NC(c1ccccc1)(c1ccccc1)c1ccccc1)NC(=O)[C@@H](NC(=O)OC(C)(C)C)c1ccccc1 | 0.64 µM | 3.9 µM | 0.4 µM | 0.64 µM | 0.45 µM | 0.3 µM | 31 µM | 1.4 µM | 0.47 µM | tde | – | – | – | – | – | – | – | – |
| CCOC(=O)/C=C/[C@H](CCC(=O)NC(c1ccccc1)(c1ccccc1)c1ccccc1)NC(=O)OC(C)(C)C | – | 4 µM | – | – | 1.8 µM | – | 2.8 µM | 8.2 µM | 4.3 µM | tde | 3.6 µM | > 36 | > 100 µM | – | – | – | – | – |
| CCOC(=O)/C=C\C(=O)N[C@@H](CCC(=O)NC(c1ccccc1)(c1ccccc1)c1ccccc1)C(=O)OC | – | – | – | – | – | – | 25.5 µM | – | – | – | – | – | – | inactive | 30% | inactive | – | – |
| CCOC(=O)/C=C/[C@@H](CCC(=O)NC(c1ccccc1)(c1ccccc1)c1ccccc1)NC(=O)[C@@H](NC(=O)OC(C)(C)C)c1ccccc1 | – | – | – | – | 0.49 µM | – | 3.5 µM | – | 0.14 µM | tde | – | 17 | 60 µM | – | – | – | 0.9 µM | – |
| CCOC(=O)/C=C/CN[C@@H](CCC(N)=O)C(=O)N[C@H](C(=O)N[C@H](C(=O)N[C@@H](C)C(=O)OCc1ccccc1)C(C)C)C1CCCCC1 | – | 35.8 µM | – | – | 6.7 µM | – | – | 28.4 µM | 5.8 µM | – | – | – | – | – | – | – | – | 5.4 µM |

— ChEMBL document CHEMBL1156268, “Michael acceptor based antiplasmodial and antitrypanosomal cysteine protease inhibitors with unusual amino acids” (J Med Chem, 2010)
